The source of these data is US9566351B2, “Molecular containers and methods of making and using same” (University of Maryland, College Park, priority 2010, dated 2017).

For data set [1] the following is noted: drug with Motor1; 20 mM sodium phosphate buffer (pH=7.4); phase diagram.
For data set [2] the following is noted: Swiss Webster, mouse, in vivo, iv, 3.2 mg/kg.
The conditions of data set [3]: Swiss Webster, mouse, in vivo.
A further data set deals with SK-OV-3 cells. The following applies: ABZ formulated in ethanol; cited from earlier work.
The subject of data set [4] is OVCAR-3 (human ovarian adenocarcinoma). Particulars: 150 mg/kg of ABZ 3 times a week for 4 weeks through IP; cited from earlier work.
Another data set has as its system glioblastoma multiforme. The following applies: daily oral doses (50 and 150 mg/kg) of ABZ tablets mixed with 50% sesame oil; cited from earlier work.
Data set [5] has as its system SKHEP-1 (human liver adenocarcinoma) xenografts. Particulars: ABZ in sesame oil; xenografts on the flank of mice; cited from earlier work.
Data set [6] is described as follows: in vivo. The following applies: Swiss Webster, mouse, iv, plasma concentration.
The nature of data set [7]: in vivo. The following applies: Swiss Webster, mouse, ip, plasma concentration.
The conditions of data set [8]: mice; repeated oral dosing of 30-40 mg/kg/day for 4-90 days; cited from earlier work.
The nature of data set [9]: Phase-solubility of pharmaceutical agents with Motor2 (1H NMR). The following applies: drug solubilized with Motor2; 20 mM sodium phosphate buffer (pH=7.4); phase diagram.
For data set [10] the following is noted: clinical evaluation; cited from earlier work.

Read-outs that look alike come from different tables or passages of the source.

For orientation: IC50 means the point on the concentration scale where inhibition reaches its midpoint. For the compound `CCCSc1ccc2nc(NC(=O)OC)[nH]c2c1` [Albendazole], the Solubility enhancement in data set [1] was 226 fold; in [9], 149 fold. The “tmax” value in data set [2] worked out at 4.98 min; in [3] (ip, 3.2 mg/kg), 4.98 min. Moreover, in data set [3], the “Absolute Bioavailability (%)” value is given as 78%. For the same compound, the IC50 with SK-OV-3 cells is 3.88 µM. Besides, in data set [4], the “effect on malignant ascites” value was “suppression of malignant ascites”. The mouse survival result in the data set with glioblastoma multiforme is “moderate improvements in mouse survival”. Also, in [5], the “daily oral dose required to see an antitumor effect” value was 300 mg/kg. Besides, the concentration at 5 min in the data set “in vivo [6]” came to 1910 ng/mL. In addition, the values for the concentration at 15 min in the data set “in vivo [6]” and in “in vivo [7]” were 606 ng/mL and 380 ng/mL, respectively. The concentration at 30 min in “in vivo [7]” was found to be 292 ng/mL. Moreover, the concentration at 2 h in the data set “in vivo [7]” amounted to 122 ng/mL. The signs of toxicity entry in data set [8] is recorded as “no significant signs of toxicity”.

As for `O=C(O)CCSC[C@H]1O[C@@H]2O[C@H]3[C@H](O)[C@@H](O)[C@@H](O[C@H]4[C@H](O)[C@@H](O)[C@@H](O[C@H]5[C@H](O)[C@@H](O)[C@@H](O[C@H]6[C@H](O)[C@@H](O)[C@@H](O[C@H]7[C@H](O)[C@@H](O)[C@@H](O[C@H]8[C@H](O)[C@@H](O)[C@@H](O[C@H]9[C@H](O)[C@@H](O)[C@@H](O[C@H]1[C@H](O)[C@H]2O)O[C@@H]9CSCCC(=O)O)O[C@@H]8CSCCC(=O)O)O[C@@H]7CSCCC(=O)O)O[C@@H]6CSCCC(=O)O)O[C@@H]5CSCCC(=O)O)O[C@@H]4CSCCC(=O)O)O[C@@H]3CSCCC(=O)O` [sugammadex], in [10], the “effects on QT interval” value is recorded as “no relevant effects”.
